Measured values published in US20080200479A1, “Ocaperidone Salts and Pharmaceutical Compositions Containing the Same” (priority 2005, published 2008).
Values after ≈ are worked out from the molar mass of the structure shown. Structures can show the parent of a compound that is named as a salt.

Legend:
[1] = Solubility of ocaperidone salts and free base in water; conditions: for solubility in water (in words): crystalline salt, HPLC grade water pH=6, 25° C., 1 h and 24 h, compared with salts of examples 1, 3-10 and free base
Experimental: In particular, the solubilities of ocaperidone salts were measured as follows:
UV/visible spectrophotometer: Agilent 8453E
Volumetric flask (5 ml, 10 ml, 20 ml, 100 ml) Mechanical pipettes: Biohit (m1000, m200)
Magnetic stirrer: Heidolph MR3001K
A suspension of 100 mg of crystalline ocaperidone salt or ocaperidone free base in 1 ml HPLC grade pure water (pH=6) was prepared. The suspension was kept at fixed and controlled temperature (ex: 25° C.) under magnetic stirring for 24 hours. A sample was taken, filtered and the solubility of the ocaperidone salts or ocaperidone free base was measured after 1 h and 24 h. Results are given in g/100 ml.

[2] = Solubility of ocaperidone free base in acid solution; assay type: physicochemical; conditions: acid solution at pH=1.3

| solubility in water (in words) ([1]; listed as ocaperidone pyroglutamic salt) | times more soluble than the succinic acid addition salt ([1]; ocaperidone salt solubility study in water, ratio to succinic acid addition salt) | solubility in acid solution [2] | solubility thermodynamic ([1]; 25 °C, pH 6, water, thermodynamic from solid) | SMILES | solubility in water (in words) [1] |
| --- | --- | --- | --- | --- | --- |
| unexpectedly high solubility | 31.2 times |  |  | Cc1nc2c(C)cccn2c(=O)c1CCN1CCC(c2noc3cc(F)ccc23)CC1 [Example 2, Ocaperidone Pyroglutamic Acid Salt] | higher solubility in water than the other salts |
|  |  | 0.25 g/100 ml | 7 µg/mL (≈ 16.6 µM) | Cc1nc2c(C)cccn2c(=O)c1CCN1CCC(c2noc3cc(F)ccc23)CC1 [ocaperidone, 3-[2-[4-(6-fluoro-1,2-benzisoxazol-3-yl)-1-piperidinyl]ethyl]-2,9-dimethyl-pyrido-[1,2-a]pyrimidin-4-one] |  |
